According to ChEMBL document CHEMBL1146969, “Stereoselective synthesis and fungicidal activities of (E)-alpha-(methoxyimino)-benzeneacetate derivatives containing 1,3,4-oxadiazole ring” (2006):

Tests used:
Type in all cases: functional
[1] = tested on: Bipolaris maydis; experiment: Antifungal activity against Bipolaris maydis at 50 ug/ml
[2] = tested on: Botryosphaeria berengeriana; experiment: Antifungal activity against Physalospora piricola at 50 ug/ml
[3] = tested on: Fusarium graminearum; experiment: Antifungal activity against Gibberella zeae at 50 ug/ml
[4] = tested on: Botrytis cinerea; experiment: Antifungal activity against Botrytis cinereapers at 50 ug/ml
[5] = tested on: Thanatephorus cucumeris; experiment: Antifungal activity against Rhizoctonia solani at 50 ug/ml

Row | SMILES | inhibition at 50 µg/mL [1] [%] | inhibition at 50 µg/mL [2] [%] | inhibition at 50 µg/mL [3] [%] | inhibition at 50 µg/mL [4] [%] | inhibition at 50 µg/mL [5] [%]
1 | CO/N=C(/C(=O)OC)c1ccccc1CSc1nnc(-c2ccc(OC)cc2)o1 | 92.5 | 93.8 | 85.7 | 94.2 | 91.8
2 | CO/N=C(/C(=O)OC)c1ccccc1CSc1nnc(-c2cccc(Cl)c2)o1 | 90.9 | 92.6 | 96.9 | 85.4 | 94.4
3 | CO/N=C(/C(=O)OC)c1ccccc1CSc1nnc(-c2ccc(C(F)(F)F)cc2)o1 | 81.8 | 100 | 93.8 | 84.6 | 95.6
4 | CO/N=C(/C(=O)OC)c1ccccc1CSc1nnc(-c2ccccc2F)o1 | 92.3 | 100 | 98 | 97.6 | 92.6
5 | CO/N=C(/C(=O)OC)c1ccccc1CSc1nnc(-c2cccc(Cl)c2Cl)o1 | 84 | 96.7 | 84.3 | 83.3 | 91.6
6 | CO/N=C(/C(=O)OC)c1ccccc1CSc1nnc(-c2ccc(Cl)cc2Cl)o1 | 85.7 | 88.9 | 74.3 | 98.8 | 92.6
7 | CO/N=C(/C(=O)OC)c1ccccc1CSc1nnc(-c2ccccc2I)o1 | 86.4 | 96.3 | 98.4 | 96.2 | 90.2
8 | CO/N=C(/C(=O)OC)c1ccccc1CSc1nnc(-c2cc(Cl)ccc2Cl)o1 | 82.7 | 100 | 90.6 | 88.5 | 97
9 | CO/N=C(/C(=O)OC)c1ccccc1CSc1nnc(-c2ccc(OCc3ccccc3)cc2)o1 | 95 | 96.9 | 89.2 | 90.6 | 98
10 | CO/N=C(/C(=O)OC)c1ccccc1CSc1nnc(-c2ccccc2)o1 | 88 | 94.9 | 79.4 | 97.6 | 92.4
11 | CO/N=C(/C(=O)OC)c1ccccc1CSc1nnc(-c2ccc(Br)cc2F)o1 | 92.9 | 100 | 85.7 | 100 | 97.9
12 | CO/N=C(/C(=O)OC)c1ccccc1CSc1nnc(-c2ccc(F)cc2)o1 | 91.7 | 100 | 98.6 | 100 | 97.9
13 | CO/N=C(/C(=O)OC)c1ccccc1CSc1nnc(-c2ccc([N+](=O)[O-])cc2)o1 | 86.4 | 96.3 | 92.5 | 88.5 | 85.9
14 | CO/N=C(/C(=O)OC)c1ccccc1CSc1nnc(-c2cccc(F)c2F)o1 | 96.4 | 100 | 98.6 | 100 | 100
15 | CO/N=C(/C(=O)OC)c1ccccc1CSc1nnc(-c2cc(F)c(Cl)cc2Cl)o1 | 81.6 | 100 | 88.6 | 98.8 | 97.8
16 | CO/N=C(/C(=O)OC)c1ccccc1COc1ccccc1C [KRESOXIM-METHYL] | 90.6 | 98.5 | 96.8 | 97.2 | 66.1
